Measured values reported in patent publication US9012459B2, “Monohydrate crystalline form of 3-(5-(4-(3-fluoropropyl)-piperazin-1-yl)benzimidazol-2-yl)-1-azaazulen-2-one, preparation, and pharmaceutical composition thereof” (Industrial Technology Research Institute, priority 2012, dated 2015).
Like-named read-outs stand apart in the source and are kept apart here.

How the values were obtained:
[1] = hygroscopicity test (weight gain); assay type: physicochemical; conditions: for Weight gain (%): 1 day, temperature 22.5/21.8 ° C., relative humidity 70/71 %; for hygroscopicity: Hydroscopicity test
Description: The monohydrate form of Formula I (300 mg) was dissolved at room temperature in the mix solution of CH2Cl2 (50 mL) and methanol (50 mL). Na2SO4 (10 g) was then added into the solution to absorb water with stir for 2 hours.

[2] = solubility in different pH buffer solutions (HPLC); assay type: physicochemical; conditions: buffer solution, thermodynamic from solid, read-out: Concentration (solubility)
[3] = pharmacokinetics profile and bioavailability, PO dosing; assay type: in vivo; conditions: PO 30 mg/kg, male SD rat; monohydrate in capsule and in 0.5% methyl cellulose suspension, sample #4 in 0.5% methyl cellulose
Description: The pharmacokinetics profile and the bioavailability were tested by a PO (per os) dosing with 30 mg/kg of sample of Example 1 (monohydrate), good in capsule (Tropac, 9el) and in bottle (0.5% methyl cellulose suspension) for male SD rat; and also a PO dosing with 30 mg/kg of sample #4 (mixed crystalline form) in 0.5% methyl cellulose for male SD rat as a treatment control. With the result from the above testing, the preferable PO dosing for first in human model was determined.
Generally, the PK profile of the crystalline form with good crystallinity and stability would be worse than that of amorphous form and complex form.
The terms used in FIG. 10 were listed as follows, PO (per os) represents taken by mouth; Cmax (ng/mL) represents the peak plasma concentration of a drug after administration; Tmax (hr) represents the time to reach Cmax; T1/2 (hr) represents elimination half-life, which represents the time required for the concentration of the drug to reach half of its original value; and AUC (hr*ng/mL) [area under the curve] represents the integral of the concentration-time curve (after a single dose or in steady state), and the bioavailability could be deducted from AUC values.

[4] = stability examination by slurry test (XRPD); assay type: physicochemical; conditions: stirred at 25° C. for 3 days in ethyl acetate, heptanes or isopropanol
Description: 1. Formula I-EA: the monohydrate form of Formula I (57 mg) and Ethyl acetate (1 mL) was provided.
2. Formula I-Heptane: the monohydrate form of Formula I (51 mg) and Heptanes (1 mL) was provided: […]
3. Formula I-IPA: the monohydrate form of Formula I (53 mg) and 1 mL of Isopropanol (1 mL) was provided.
The solutions provided above were stirred at 25° C. for 3 days and then a centrifugation was performed to collect the solid with centrifuge in each. Each of the collected solids was dried and analyzed using XPRD. […] This is a pre-test for the subsequent formulation, which is aimed to confirm that the monohydrate form wouldn't change with the incorporation of solvents. Therefore, the solvents used herein may not be the same as those crystallized solvents used in the embodiments.

[5] = stability test (XRPD and HPLC over time); assay type: physicochemical; conditions: about 25-30° C. and 40%-45% RH; after preparation, one, two and four months
Description: An appropriate amount of samples were prepared according to the method of Example 1. A XPRD analysis and a HPLC analysis were performed, under the environment of about 25-30° C. and 40%-45% RH, after the preparation of the samples (FIGS. 7a and 8a), and after one month (FIGS. 7b and 8b), two months (FIGS. 7c and 8c), and four months (FIGS. 7d and 8d) respectively from the time of preparation, and the results were examined to observe their differences over time.

| Weight gain (%) [1] [%] | hygroscopicity [1] [%] | solubility at 24 h ([2]; pH 1.2, simulated gastric fluid, buffer pH1.2, 300 rpm) [mg/mL] | solubility at 24 h ([2]; pH 5, aqueous buffer, buffer pH5, 300 rpm) [mg/mL] | solubility at 24 h ([2]; pH 6.8, aqueous buffer, buffer pH6.8, 300 rpm) [mg/mL] | solubility at 24 h ([2]; pH 7.4, aqueous buffer, buffer pH7.4, 300 rpm) [mg/mL] | PK profile (Cmax, Tmax, T1/2, AUC) compared between the 3 treatments [3] | crystalline form stability in slurry (XRPD vs original form) [4] | SMILES | stability (XRPD and HPLC differences over time) [5] |
| --- | --- | --- | --- | --- | --- | --- | --- | --- | --- |
| 3.81 | 3.81 |  |  |  |  |  |  | O=c1[nH]c2cccccc-2c1-c1nc2ccc(N3CCN(CCCF)CC3)cc2[nH]1 [anhydrate form, 3-(5-(4-(3-fluoropropyl)piperazin-1-yl)benzimidazol-2-yl)-1-azaazulen-2-one] |  |
| 1.57 | 1.57 | 26.3 | 0.263 | 0.0037 | 0.0024 | no statistically significant difference | stable | O=c1[nH]c2cccccc-2c1-c1nc2ccc(N3CCN(CCCF)CC3)cc2[nH]1 [monohydrate form of Formula I, 3-(5-(4-(3-fluoropropyl)piperazin-1-yl)benzimidazol-2-yl)-1-azaazulen-2-one] | stable and substantially the same over four months |
